assay: Evaluation of Antiviral Activity of Compounds Against Human Coronavirus (HCov) 229E and OC43 in the Cytopathic Effect (CPE) Assays: Compounds were assayed using standard methods against multiple coronaviral strains, including HCoV 229E and OC43 strains. […] The antiviral activity of compounds was calculated based on the protection of the virus-induced CPE at each concentration normalized by the virus control.

Point of comparison: `COc1cccc2[nH]c(C(=O)N[C@@H](CC(C)C)C(=O)N[C@@H](C[C@@H]3CCNC3=O)C(C#N)Nc3ccccc3)cc12` (stereo partly drawn), EC50 6 µM. Against it:
- COc1cccc2[nH]c(C(=O)N[C@@H](CC(C)C)C(=O)NC(C#N)c3cccnc3)cc12 (stereo partly drawn) — the same, 6 µM
- COc1cccc2[nH]c(C(=O)N[C@@H](CC(C)C)C(=O)N[C@@H](C[C@@H]3CCNC3=O)C(C#N)NCC(=O)O)cc12 (stereo partly drawn) — not separable, < 22 µM
- CCCN1C(=N)C([C@H](C[C@@H]2CCNC2=O)NC(=O)[C@H](CC(C)C)NC(=O)c2cc3c(OC)cccc3[nH]2)OC1=O (stereo partly drawn) — higher, > 30 µM
- N#C[C@H](C[C@@H]1CCNC1=O)NC(=O)[C@H](CC1CC1)NC(=O)c1cc2cccc(Cl)c2[nH]1 — not separable, < 22 µM
- COc1cccc2[nH]c(C(=O)N[C@@H](CC(C)(C)C)C(=O)N[C@H](C#N)C[C@@H]3CCCNC3=O)cc12 — not separable, < 22 µM
- COc1cccc2[nH]c(C(=O)N[C@@H](CC(C)C)C(=O)N[C@H](/C=C/S(C)(=O)=O)C[C@@H]3CCNC3=O)cc12 — higher, > 30 µM
- N#C[C@H](C[C@@H]1CCNC1=O)NC(=O)[C@H](CC1CC1)NC(=O)c1cc2cc(Cl)ccc2[nH]1 — not separable, < 22 µM
- CC(C)C[C@H](NC(=O)c1cc2c(OC(F)F)cccc2[nH]1)C(=O)N[C@H](C#N)C[C@@H]1CCNC1=O — not separable, < 22 µM
- COc1cccc2[nH]c(C(=O)N[C@@H](CC(C)C)C(=O)N[C@H](C#N)C[C@@H]3CCNC3=O)cc12 — not separable, < 22 µM
- COc1cccc2[nH]c(C(=O)N[C@@H](CC3CCC3)C(=O)N[C@H](C#N)C[C@@H]3CCNC3=O)cc12 — not separable, < 22 µM
- COc1cccc2[nH]c(C(=O)N3C[C@H](OC)C[C@H]3C(=O)N[C@H](C#N)C[C@@H]3CCNC3=O)cc12 — not separable, < 22 µM
- CCCOc1cccc2[nH]c(C(=O)N[C@@H](CC(C)C)C(=O)N[C@H](C#N)C[C@@H]3CCNC3=O)cc12 — not separable, < 22 µM
- CC(C)C[C@H](NC(=O)c1nc2ncccc2[nH]1)C(=O)N[C@H](C#N)C[C@@H]1CCNC1=O — the same, 6 µM
- COc1cccc2[nH]c(C(=O)N3C[C@H](SC)C[C@H]3C(=O)N[C@H](C#N)C[C@@H]3CCNC3=O)cc12 — the same, 6 µM
- COc1cccc2[nH]c(C(=O)N3C[C@@H](C45CC(C4)C5)C[C@H]3C(=O)N[C@H](C#N)C[C@@H]3CCNC3=O)cc12 (single isomer, unassigned) — not separable, < 22 µM
- COc1cccc2[nH]c(C(=O)N[C@@H](CC(C)C)C(=O)N[C@@H](C[C@@H]3CCNC3=O)[C@@H](C#N)N3CCCC3)cc12 (single isomer, unassigned) — not separable, < 22 µM
- N#C[C@H](C[C@@H]1CCCNC1=O)NC(=O)C1CC2(CN1C(=O)c1cc3cccc(Cl)c3[nH]1)CC(F)(F)C2 (single isomer, unassigned) — not separable, < 22 µM
- N#C[C@H](C[C@@H]1CCCNC1=O)NC(=O)[C@@H]1CC2(CCCCC2)CN1C(=O)c1cc2ccc(Cl)cc2[nH]1 (single isomer, unassigned) — not separable, < 22 µM
- COc1cccc2[nH]c(C(=O)N[C@@H](CC(C)C)C(=O)N[C@@H](C[C@@H]3CCNC3=O)[C@H](C#N)N3CCCC3)cc12 (single isomer, unassigned) — not separable, < 22 µM
- COc1cccc2[nH]c(C(=O)N[C@@H](CC(C)(F)F)C(=O)N[C@H](C#N)C[C@@H]3CCNC3=O)cc12 (single isomer, unassigned) — not separable, < 22 µM
- COc1cccc2[nH]c(C(=O)N3C[C@H](C45CC(C4)C5)C[C@H]3C(=O)N[C@H](C#N)C[C@@H]3CCNC3=O)cc12 (single isomer, unassigned) — not separable, < 22 µM
- N#C[C@H](C[C@@H]1CCCNC1=O)NC(=O)C1CC2(CCCCC2)CN1C(=O)c1cc2cccc(Cl)c2[nH]1 (single isomer, unassigned; isomer 1) — not separable, < 22 µM

— ChEMBL document CHEMBL5728596, “Inhibitors of cysteine proteases and methods of use thereof” (2021)
